Where a name gives a salt, the structure may show the parent alone. Read-outs that look alike come from different tables or passages of the source.
Assays:
PC14 strain = assay: Cytotoxicity test against lung cancer cells, PC14
Method: (§1) The cytotoxicity test was performed on the K252a-H bonded aromatic polymer micelle and the K252a-H bonded aliphatic polymer micelle using the lung cancer cell strains listed in Table 4.
(§2) 2000 cells/50 μL of a cell solution was adjusted to have an appropriate amount, and 50 μL of the solution was each seeded to the […] of a 96-well plate. Only a culture medium (DMEM culture medium containing 10% FBS) was added to the raw 1. After the seeding, the 96-well plate was incubated for 24 hours.
(§3) 300 μL of a culture medium was added to each of 10 wells of the 24-well plate. 100 μL of the micelle solution was added to the well 1A of the 24-well plate and stirred by pipetting (approximately 10 times), and 100 μL of the micelle solution was transferred to the well 2B and stirred in the same manner as described above. The same operation was repeated 10 times, and micelle solutions having ten different concentrations were prepared.
(§4) 50 μL of each micelle solution adjusted in the above-described manner was added to the row 3 to the row 12 of a 96-well plate seeded with cancer cells in descending order of micelle concentrations of the solutions. Only 50 μL of a culture medium was added to the rows 1 and 2. Thereafter, the 96-well plate was incubated. After the incubation, the cells remained, the solutions in the wells were removed, and the cells in each well were washed with 200 μL of the culture medium. Finally, 100 μL of the culture medium was added to each well and the 96-well plate was incubated for 48 hours.
(§5) After 48 hours, 10 μL of a cell counting kit-8 solution (DOJINDO) was added to each well. The 96-well plate was incubated again, and the absorbance at a wavelength of 450 nm was measured after 30 minutes, 1 hour, and 2 hours.
The PC14.PE6 strain is a cancer cell strain (Yano et al., Oncology Research 9:573 to 579 (1997)) obtained by performing an operation of administering the PC14 strain to the tail vein of a mouse and establishing the cancer cells metastasized to the thoracic cavity six times. […]

PC14.PE6 strain = assay: Cytotoxicity test against lung cancer cells, PC14.PE6
Method: as §1, §2, §3, §4, §5
The PC14.PE6 strain is a cancer cell strain (Yano et al., Oncology Research 9:573 to 579 (1997)) obtained by performing an operation of administering the PC14 strain to the tail vein of a mouse and establishing the cancer cells metastasized to the thoracic cavity six times. Therefore, the PC14.PE6 strain is a cancer cell strain which is extremely metastatic and malignant.

[1] = Evaluation of maximum tolerated dose (MTD) of DAVBNH; assay type: in vivo, mouse
Method: DAVBNH was administered to mice (BALB/c Nude, female, 6 weeks old) four times (0 day, 3rd day, 6th day, 9th day) […], and the maximum tolerated dose (MTD) was evaluated. The administration groups were prepared as follows, and the number of mice in each group was set to 3.
Administration group 1: 3 mg/kg of DAVBNH
Administration group 2: 4 mg/kg of DAVBNH
Administration group 3: 6 mg/kg of DAVBNH

[2] = Evaluation of maximum tolerated dose (MTD) of drug conjugate; assay type: in vivo, mouse
Method: The drug was administered to mice (BALB/c Nude, female, 6 weeks old) four times (0 day, 3rd day, 6th day, 9th day) […], and the maximum tolerated dose (MTD) was evaluated. The administration groups were prepared as follows, and the number of mice in each group was set to 5.
Administration group 1: PBS (control)
Administration group 2: 2 mg/kg of DAVBNH (VinHyd)
Administration group 3: 2 mg/kg of DAVBNH bonded polymer micelle (Example 1)
Administration group 4: 4 mg/kg of DAVBNH bonded polymer micelle (Example 1)
Administration group 5: 16 mg/kg of DAVBNH bonded polymer micelle (Example 1)

[3] = test system: pancreatic cancer cell strains; assay: Cytotoxicity test against pancreatic cancer cells; assay type: cell-based; details: FIG. 31
Method: The cytotoxicity test was performed on the K252a-H bonded aromatic polymer micelle and the K252a-H bonded aliphatic polymer micelle using various pancreatic cancer cell strains in the same manner as described above. The BXPC3-F3 strain is a metastatic strain which became malignant by performing an operation of establishing a cancer cell strain metastasized to the liver after orthotopic transplant into a mouse, three times. Further, KP-3L is a metastatic strain (available from the cell bank of National Institutes of Biomedical Innovation, Health and Nutrition JCRB) obtained by establishing a cancer cell strain metastasized to the liver after human liver metastatic pancreatic cancer was transplanted to the spleen of a nude mouse.

[4] = Solubilization test in water; assay type: physicochemical; details: distilled water, UV absorption spectrum of filtrate
Method: K252a-H powder was dissolved in distilled water or methanol at a ratio of 1 mg/mL and the solution was sufficiently mixed. Thereafter, the solution was filtered using a filter having a pore diameter of […]. The ultraviolet absorption spectrum of the filtrate prepared as described above was measured using a spectrophotometer (Jasco V670). Based on the results of FIG. 27, it was confirmed that K252a-H was only dissolved in water at a ratio of 1 μg/mL or less.
Meanwhile, the K252a-H bonded aromatic polymer micelle and the K252a-H bonded aliphatic polymer micelle were dissolved in water, and the concentration of K252a-H was measured using HPLC.

[5] = test system: lung cancer cell strains listed in Table 4; assay: Cytotoxicity test against lung cancer cells; assay type: cell-based; details: FIG. 29
Excerpt: Further, in the following example, the used cell strains were purchased from the cell bank of American Type Culture. Collection, ATCC or National Institutes of Biomedical Innovation, Health and Nutrition (JCRB). PC14 PE6 was distributed from Profession Hosho (Tottori University). As the culture medium, DMEM, RPMI, or E-MEM was used unless otherwise specified. Gefitinib, Afatinib, Erlotinib, Cisplatin, Pemetrexed, and Gemicitabine were purchased from Funakoshi Co., Ltd. Osimertinib was purchased from Sellek Chemicals LLC.
Thereafter, the 96-well plate was incubated.

[6] = test system: head and neck cancer cell strains; assay: Cytotoxicity test against head and neck cancer cells; assay type: cell-based; details: all head and neck cancer cell strains, FIG. 32
Method: The cytotoxicity test was performed on the K252a-H bonded aromatic polymer micelle and the K252a-H bonded aliphatic polymer micelle using various head and neck cancer cell strains in the same manner as described above. Further, CDDP indicates Cisplatin serving as a target treatment drug for head and neck cancer.

[7] = test system: mesothelioma cell strain MSTO-211H; assay: Cytotoxicity test against mesothelioma cells; assay type: cell-based; details: FIG. 33
Excerpt: Further, CDDP indicates Cisplatin serving as a target treatment drug for mesothelioma. Pemetrexed is also a target treatment drug for mesothelioma.

EGFR L858R = biological target: T1, EGFR L858R (Homo sapiens, UniProt P00533, L858R); assay: Hot spot kinase profiling, EGFR mutation; assay type: biochemical; details: 100 nM, ATP 10 μM, FIG. 40
T1 construct: purchased Reaction Biology Corporation
Method: (§6) The kinase profiling of K252a-H was performed using Monthly 202 mutant kinase panel by entrustment with Reaction Biology Corporation. The conditions for the kinase assay are as follows. KK252a was dissolved in DMSO and the assay was performed at 100 nM.
(§7) Buffer condition: 20 mM HEPES, pH of 7.5, 10 mM MgCl2, 1 mM EGTA, (in a case of being applicable, 2 mM MnCl2)

EGFR T790M = biological target: T2, EGFR T790M (Homo sapiens, UniProt P00533, T790M); assay: Hot spot kinase profiling, EGFR mutation; assay type: biochemical; details: 100 nM, ATP 10 μM, FIG. 40
T2 construct: purchased Reaction Biology Corporation
Method: as §6, §7

EGFR d746-750/T790M = biological target: T3, EGFR d746-750/T790M (Homo sapiens, UniProt P00533, DEL746-750/T790M); assay: Hot spot kinase profiling, EGFR mutation; assay type: biochemical; details: 100 nM, ATP 10 μM, FIG. 40
T3 construct: purchased Reaction Biology Corporation
Method: as §6, §7

[8] = biological target: T4, EGFR d746-750/T790M/C797S (Homo sapiens, UniProt P00533, C797S/DEL746-750/T790M); assay: Hot spot kinase profiling, EGFR mutation; assay type: biochemical; details: 100 nM, ATP 10 μM, FIG. 40
T4 construct: purchased Reaction Biology Corporation
Method: as §6, §7

Flt3 = assay: Hot spot kinase profiling; assay type: biochemical; details: 100 nM, ATP 10 μM
Method: as §6, §7

RET = assay: Hot spot kinase profiling; assay type: biochemical; details: 100 nM, ATP 10 μM
Method: as §6, §7

c-kit = assay: Hot spot kinase profiling; assay type: biochemical; details: 100 nM, ATP 10 μM
Method: as §6, §7

[9] = biological target: mutant kinases (list of FIG. 42); assay: Hot spot kinase profiling, Monthly 202 mutant kinase panel; assay type: biochemical; details: 100 nM, ATP 10 μM, mutant kinases listed in FIG. 42
Method: as §6, §7

[10] = test system: U87MG serving as a glioma cell strain; assay: Cytotoxicity test against brain tumor cells (cell-counting kit-8); assay type: cell-based; details: Homo sapiens, U-87 MG
Method: The in vitro cytotoxicity of the vinblastine sulfate and the drug conjugate (DAVBNH bonded polymer micelle of Example 1) was evaluated using cell-counting kit-8 with respect to U87MG serving as a glioma cell strain. The U87MG cells (3000 cells/well) were cultured in a DMEM medium containing 10% FBS using a 96-well plate. Thereafter, the U87MG cells were exposed to the vinblastine sulfate or the drug conjugate whose dose was different from that of the vinblastine sulfate. The cell survival rates after 48 hours and 72 hours from the exposure were acquired by measuring the formazan absorbance […] 450 nm.

[11] = mouse; cited from earlier work
[12] = malignant metastatic strain, compared with PC14

CN(C)C/C=C/C(=O)Nc1cc2c(Nc3ccc(F)c(Cl)c3)ncnc2cc1O[C@H]1CCOC1 [Afatinib]
cytotoxic activity against the PC14 strain (PC14 strain; FIGS. 29 and 30): excellent cytotoxic activity
cytotoxic activity against the PC14.PE6 strain (PC14.PE6 strain; [12]): significantly decreased

CC[C@]1(O)C[C@@H]2CN(CCc3c([nH]c4ccccc34)[C@@](C(=O)OC)(c3cc4c(cc3OC)N(C)[C@H]3[C@@](O)(C(=O)NN)[C@H](O)[C@]5(CC)C=CCN6CC[C@]43[C@@H]65)C2)C1 [DAVBNH, desacetyl vinblastine hydrazide]
weight loss ([1]; dose of 3 mg/kg, after only 25% of the treatment schedule): significant weight loss was observed
lethal dose ([1]; mice, four administrations): 6 mg/kg
weight loss ([2]; dose 2 mg/kg): a weight loss occurs
MTD ([2]; female, BALB/c Nude, mouse, in vivo, 2 mg/kg, mice, as used in Example 8): 2 mg/kg

C#Cc1cccc(Nc2ncnc3cc(OCCOC)c(OCCOC)cc23)c1 [Erlotinib]
effect on K-ras mutant strains and malignant metastatic strains [3]: not largely affected

CC12OC(CC1(O)C(=O)NN)n1c3ccccc3c3c4c(c5c6ccccc6n2c5c31)CNC4=O (centres unmarked) [Example K252a-H, K252a hydrazide]
dissolved in water [4]: ≤ 1 µg/mL
cytotoxic activity against lung cancer having resistance to lung cancer treatment drugs of the related art [5]: excellent cytotoxic activity
cytotoxic activity against the PC14.PE6 strain (PC14.PE6 strain; [12]): increased
effect on K-ras mutant strains and malignant metastatic strains [3]: effective for K-ras mutant strains and malignant metastatic strains
cytotoxic activity compared with Cisplatin [6]: higher cytotoxic activity against all head and neck cancer cell strains than that of Cisplatin
cytotoxic activity compared with Cisplatin and Pemetrexed [7]: higher cytotoxic activity than that of Cisplatin and Pemetrexed
activity against EGFR gatekeeper mutation L858R (EGFR L858R): specifically high activity
activity against EGFR gatekeeper mutation T790M (EGFR T790M): specifically high activity
activity against EGFR gatekeeper mutation d746-750/T790M (EGFR d746-750/T790M): specifically high activity
activity against EGFR gatekeeper mutation d746-750/T790M/C797S [8]: specifically high activity
inhibition of oncogene Flt3 (Flt3): strong inhibitor
inhibition of oncogene RET (RET): strong inhibitor
inhibition of oncogene c-kit (c-kit): strong inhibitor
kinase activity suppressed to [9]: ≤ 30%

COc1cc2ncnc(Nc3ccc(F)c(Cl)c3)c2cc1OCCCN1CCOCC1 [Gefitinib]
cytotoxic activity against the PC14 strain (PC14 strain): excellent cytotoxic activity
cytotoxic activity against the PC14.PE6 strain (PC14.PE6 strain): significantly decreased

Nc1ccn([C@@H]2O[C@H](CO)[C@@H](O)C2(F)F)c(=O)n1 [Gemcitabine]
effect on K-ras mutant strains and malignant metastatic strains [3]: not largely affected

C=CC(=O)Nc1cc(Nc2nccc(-c3cn(C)c4ccccc34)n2)c(OC)cc1N(C)CCN(C)C [Osimertinib]
cytotoxic activity against the PC14 strain (PC14 strain): excellent cytotoxic activity
cytotoxic activity against the PC14.PE6 strain (PC14.PE6 strain): significantly decreased

CC[C@]1(O)C[C@@H]2CN(CCc3c([nH]c4ccccc34)[C@@](C(=O)OC)(c3cc4c(cc3OC)N(C)[C@H]3[C@@](O)(C(=O)OC)[C@H](OC(C)=O)[C@]5(CC)C=CCN6CC[C@]43[C@@H]65)C2)C1 [Vinblastine sulfate, vinblastine sulfate]
IC50 ([10]; 48 hours from the exposure, read-out: IC50 48 hours): 1.4 nM
IC50 ([10]; 72 hours from the exposure, read-out: IC50 72 hours): 1.7 nM

CC[C@]1(O)C[C@@H]2CN(CCc3c([nH]c4ccccc34)[C@@](C(=O)OC)(c3cc4c(cc3OC)N(C)[C@H]3[C@@](O)(C(=O)OC)[C@H](OC(C)=O)[C@]5(CC)C=CCN6CC[C@]43[C@@H]65)C2)C1 [Vinblastine, vinblastine]
maximum tolerated dose [11]: 2 mg/kg
